Laboratory results from patent publication US20090068243A1, “Novel formulations for delivery of antiviral peptide therapeutics” (priority 2007, published 2009).

Columns and labels:
[1] = Helicity by circular dichroism (CD); type: physicochemical; conditions: usually percent helicity at 10 μM, 25° C.
Method: (§1) Assessment of biophysical parameters included measurement of helicity and thermal stability. Helicity was assessed by circular dichroism (“CD”) as follows. Briefly, CD spectra were obtained using a spectrometer equipped with a thermoelectric temperature controller. The spectra was obtained at 25° C. with 0.5 nanometer (nm) steps from 200 to 260 nm, with a 1.5 nm bandwith, and a typical averaging time of 4 seconds/step. After the cell/buffer blank was subtracted, spectra were smoothed using a third-order least-squares polynomial fit with a conservative window size to give random residuals. Raw ellipticity values were converted to mean residue ellipticity using standard methods, and plotted was the wavelength (from 200 to 260 nm) versus [θ]×10−3 (degrees cm^2/dmol). Percent helicity values were then calculated using standard methods (usually expressed as percent helicity at 10 μM, 25° C.). Assessment of thermal stability was performed by monitoring the change in CD signal at 222 nm as temperature was raised in 2° C. steps, with 1 minute equilibration times. The stability for each sample (e.g., HIV fusion inhibitor peptide), as represented by the Tm value, is the temperature corresponding to the maximum value of the first derivative of the thermal transition.

[2] = tested on: HIV-Res; type: cell-based, HIV-1; conditions: resistant viral isolate "Res"
Text: Assessment of biological properties included measurement of antiviral activity against HIV-1 strains. In determining antiviral activity (e.g., one measure being the ability to inhibit transmission of HIV to a target cell) of the HIV fusion inhibitor peptides, an in vitro assay which has been shown, by data generated using peptides derived from the HR regions of HIV gp41, to be predictive of antiviral activity observed in vivo was used. […] These assays score for reduction of infectious virus titer employing the indicator cell lines MAGI or the CCR5 expressing derivative cMAGI. Both cell lines exploit the ability of HIV-1 tat to transactivate the expression of a β-galactosidase reporter gene driven by the HIV-LTR. The β-gal reporter has been modified to localize in the nucleus and can be detected with the X-gal substrate as intense nuclear staining within a few days of infection. […] The number of infected cells for each control and peptide dilution was determined with the CCD-imager, and then the IC50 was calculated (expressed in μg/ml).
Viruses resistant to the antiviral activity of a peptide consisting of a base sequence can be produced using standard laboratory methods. […] The cultures are maintained and monitored until syncytia are present. […] The second round of culture is maintained and monitored for presence of virus resistant to the antiviral activity of the peptide. […]

[3] = Thermal stability (Tm) by CD signal at 222 nm; type: physicochemical; conditions: CD at 222 nm, maximum of first derivative of thermal transition
Method: as §1

[4] = tested on: HIV-IIIB; conditions: 50% reduction in infectious virus titer
Text: Assessment of biological properties included measurement of antiviral activity against HIV-1 strains. […] These assays score for reduction of infectious virus titer employing the indicator cell lines MAGI or the CCR5 expressing derivative cMAGI. Both cell lines exploit the ability of HIV-1 tat to transactivate the expression of a β-galactosidase reporter gene driven by the HIV-LTR. The β-gal reporter has been modified to localize in the nucleus and can be detected with the X-gal substrate as intense nuclear staining within a few days of infection. The number of stained nuclei can thus be interpreted as equal to the number of infectious virions in the challenge inoculum if there is only one round of infection prior to staining. […] In the MAGI and cMAGI assays, a 50% reduction in infectious titer (Vn/Vo=0.5) is significant, and provides the primary cutoff value for assessing antiviral activity (“IC50” is defined as the concentration of active ingredient resulting in a 50% reduction in infectious virus titer). […] The number of infected cells for each control and peptide dilution was determined with the CCD-imager, and then the IC50 was calculated (expressed in μg/ml).

[5] = Intravenous pharmacokinetics in cynomolgus monkeys; type: in vivo, cynomolgus monkeys (Macaca fasicularis)
Method: For determining pharmacokinetic properties, an HIV fusion inhibitor peptide or a base sequence from which an HIV fusion inhibitor peptide is derived was dosed intravenously in cynomolgus monkeys (Macaca fasicularis) (other animal models may be used for determining pharmacokinetic properties, as known in the art). At various times post-dose, blood samples were drawn and plasma isolated by centrifugation. Plasma samples were stored frozen until analysis by LC-MS (liquid chromatography/mass spectrometry) in the electrospray, positive-ion mode. An HIV fusion inhibitor or base sequence was eluted from a C18 or C8 HPLC column with a gradient of acetonitrile in a buffer of 10 mM ammonium acetate, pH 6.8. At the time of analysis, plasma samples were deproteinated with either two or three volumes of acetonitrile containing 0.5% formic acid. Duplicate calibration standards in cynomolgus plasma samples were prepared at the same time as the samples and analyzed before and after the samples containing either HIV fusion inhibitor peptide or base sequence. Pharmacokinetic properties were calculated from the plasma concentration-time data using either mono-exponential or bi-exponential mathematical models. Models were derived by non-linear least squares optimization. A 1/C^2 weighting of concentrations was used. The following equations were used to calculate area-under the plasma concentration vs. time curve (AUC), total body clearance (Cl), and terminal elimination half-life (t ½).
Where A and B are intercepts and a and b are the rate constants of the exponential equations describing the distribution and elimination phases, respectively. When mono-exponential models were used, the “A” and “a” properties were eliminated.
Cl=Dose/AUC (expressed in L/K/hr)
t½=0.6903/b (expressed in hr)

[6] = tested on: 584.000030
Text: (§2) Assessment of biological properties included measurement of antiviral activity against HIV-1 strains. […] These assays score for reduction of infectious virus titer employing the indicator cell lines MAGI or the CCR5 expressing derivative cMAGI. Both cell lines exploit the ability of HIV-1 tat to transactivate the expression of a β-galactosidase reporter gene driven by the HIV-LTR. The β-gal reporter has been modified to localize in the nucleus and can be detected with the X-gal substrate as intense nuclear staining within a few days of infection. The number of stained nuclei can thus be interpreted as equal to the number of infectious virions in the challenge inoculum if there is only one round of infection prior to staining. […] In the MAGI and cMAGI assays, a 50% reduction in infectious titer (Vn/Vo=0.5) is significant, and provides the primary cutoff value for assessing antiviral activity (“IC50” is defined as the concentration of active ingredient resulting in a 50% reduction in infectious virus titer). […] The peptide (in the respective dilution) was added to the cMAGI or MAGI cells, followed by the virus inocula; and 24 hours later, an inhibitor of infection and cell-cell fusion (e.g., SEQ ID NO:2 (enfuvirtide)) was added to prevent secondary rounds of HIV infection and cell-cell virus spread. The cells were cultured for 2 more days, and then fixed and stained with the X-gal substrate to detect HIV-infected cells. The number of infected cells for each control and peptide dilution was determined with the CCD-imager, and then the IC50 was calculated (expressed in μg/ml).
(§3) In particular, in vitro resistance comparison studies were performed between the novel SEQ ID NO:9 compound of interest and established antiviral agent SEQ ID NO:2, described in detail as follows: MT2 cells were infected with virus isolates (IIIB, 030, 060 and 098) and cultured in increasing concentrations of SEQ ID NO:2 (enfuvirtide) or SEQ ID NO:9 to select for resistance. The initial peptide concentration was approximately 2 times the IC50 of each peptide against the corresponding wild type isolate. Peptide concentrations were maintained by adding fresh peptide every 1-3 days. Cultures were monitored for cytopathic effect (CPE) using standard techniques and when maximal CPE was achieved, a small aliquot of virus was used for subsequent rounds of infection. Peptide concentrations were increased 2 to 4-fold depending on the length of time in culture when compared to the growth rate of wild type virus. During the course of selection, peptide-free virus stocks were also collected. Peptide-free virus stocks were characterized for gp41 genotypic changes by dideoxy sequencing chemistries and phenotypic susceptibility was determined using a cMAGI infectivity assay.

[7] = tested on: virus isolates (IIIB, 030, 060 and 098); conditions: Geometric Mean of four isolates
Text: as §2, §3

[8] = tested on: 584.000098
Text: as §2, §3

[9] = tested on: IIIB; conditions: starting virus isolate IIIB
Text: as §2, §3

[10] = tested on: 584.000060
Text: as §2, §3

[11] = Stability in aqueous solution (PBS), peptide remaining in solution by HPLC; type: physicochemical; conditions: 10 mg/ml in PBS, about pH 7.3 to 7.5, 37° C.

With “Ac-TTWEAWDRAIAEYAARIEALLRAAQEQQEKLEAALREL-NH2 [SEQ ID NO:10, TTWEAWDRAIAEYAARIEALLRAAQEQQEKLEAALREL]” the “Helicity (%)” value [1] was 77%, the “Antiviral Activity (μg/ml) HIV-Res IC50” value [2] was under 0.10 µg/mL and the “Tm (° C.)” value [3] was 75 °C. For the same substance, the “Antiviral Activity (μg/ml) HIV-IIIB IC50” value [4] was under 0.10 µg/mL, the “biological half-life relative to base sequence, in words” value ([5]; comment on Table 2) was “increased biological half-life” and the clearance ([5]; cynomolgus monkey, plasma, iv, dosed intravenously) was under 0.02 L/h/kg. The half-life ([5]; cynomolgus monkey, plasma, iv, dosed intravenously, read-out: Half-life (t ½; hr) (converted)) was 21 h.
For enfuvirtide, the “Fold Change in IC50” value ([6]; starting virus isolate 584.000030) was 19, the “Ending IC50” value ([6]; starting virus isolate 584.000030, after selection) was 0.798 mg/L and the “Starting IC50” value ([6]; starting virus isolate 584.000030, before selection) was 0.042 mg/L. The “Fold Change in IC50” value [7] was 42, the “Ending IC50” value ([7]; after selection) was 0.797 mg/L and the “Starting IC50” value ([7]; before selection) was 0.019 mg/L. For the same substance, the “Fold Change in IC50” value ([8]; starting virus isolate 584.000098) was 912, the “Ending IC50” value ([8]; starting virus isolate 584.000098, after selection) was 45.575 mg/L and the “Starting IC50” value ([8]; starting virus isolate 584.000098, before selection) was 0.05 mg/L. The “Fold Change in IC50” value [9] was 27, the “Ending IC50” value ([9]; after selection) was 0.163 mg/L and the “Starting IC50” value ([9]; before selection) was 0.006 mg/L. For the same substance, the “Fold Change in IC50” value ([10]; starting virus isolate 584.000060) was 7, the “Ending IC50” value ([10]; starting virus isolate 584.000060, after selection) was 0.068 mg/L and the “Starting IC50” value ([10]; starting virus isolate 584.000060, before selection) was 0.01 mg/L. The “stability of solution, in words” value [11] was “becomes unstable after just several hours”.
